Results on 13 compounds are retold here after patent publication US20230416237A1, “AMIDE COMPOUND, PHARMACEUTICAL COMPOSITION AND USE THEREOF” (SHENZHEN BO LI JIAN MEDICINE CO., LTD., priority 2020, published 2023).

The term IC50 denotes the concentration that inhibits the measured activity by half.

In assay [1] the target is JAK1 (Homo sapiens (Human), UniProt P23458). In words: JAK1 inhibitory activity, mobility shift assay, 1 mM ATP. The note with it: for IC50: 1 mM ATP; for JAK2/JAK1 Multiple selectivity: ratio of JAK2 IC50 to JAK1 IC50, 1 mM ATP. The class given is biochemical. The procedure: (§1) The JAK1 inhibitory activity and the JAK2 inhibitory activity of the amide compounds provided in the above examples were tested by the method below.
JAK1, sequence (P23458 850-1154): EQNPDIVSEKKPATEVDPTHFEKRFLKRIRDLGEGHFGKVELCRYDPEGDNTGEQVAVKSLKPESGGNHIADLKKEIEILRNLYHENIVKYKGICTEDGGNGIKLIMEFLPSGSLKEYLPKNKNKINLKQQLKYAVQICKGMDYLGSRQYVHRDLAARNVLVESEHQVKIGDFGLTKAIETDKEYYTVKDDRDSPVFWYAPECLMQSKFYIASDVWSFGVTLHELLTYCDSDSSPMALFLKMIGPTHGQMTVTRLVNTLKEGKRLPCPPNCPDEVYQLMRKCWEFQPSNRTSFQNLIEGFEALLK
(§2) Specific steps are described below. • 1. A 1× Kinase buffer was formulated. • 2. Concentration gradients of the compound were formulated: a test compound with an initial concentration of 10000 nM (JAK1) or 30000 nM (JAK2) was diluted in a 384-well plate to a 100% DMSO solution with a 100-fold final concentration, wherein the compound was diluted by a fold of 3 to 10 concentrations. 250 nL of the compound with the 100-fold final concentration was transferred with a dispenser Echo 550 to the target plate. • 3. A kinase solution with a 2.5-fold final concentration was prepared with the 1× Kinase buffer. • 4. […] The plate was centrifuged at 1000 rpm for 30 s, shaken and uniformly mixed, and incubated for 10 min at room temperature. • 6. A mixed solution of ATP (the final concentration of ATP=1 mM) and Kinase substrate with a 5/3-fold final concentration was formulated with the 1× Kinase buffer. • 7. 15 μL of the mixed solution of ATP and the substrate with the 5/3-fold final concentration was added to initiate the reaction. • 8. The 384-well plate was centrifuged at 1000 rpm for 30 s, shaken and uniformly mixed, and incubated for respective times at room temperature. • 9. The kinase reaction was stopped by adding 30 μL of a detection termination solution, and the plate was centrifuged at 1000 rpm for 30 s and shaken and uniformly mixed. • 10. The conversion rate was read with Caliper EZ Reader and the half maximal inhibitory concentration (IC50) was calculated.

In assay [2] the target is T1, JAK2 (Homo sapiens (Human), UniProt O60674). As to the kind of experiment: JAK2 inhibitory activity, mobility shift assay, 1 mM ATP. The format is biochemical. The procedure: as §1, §2
Target sequence in this assay (O60674 826-1132): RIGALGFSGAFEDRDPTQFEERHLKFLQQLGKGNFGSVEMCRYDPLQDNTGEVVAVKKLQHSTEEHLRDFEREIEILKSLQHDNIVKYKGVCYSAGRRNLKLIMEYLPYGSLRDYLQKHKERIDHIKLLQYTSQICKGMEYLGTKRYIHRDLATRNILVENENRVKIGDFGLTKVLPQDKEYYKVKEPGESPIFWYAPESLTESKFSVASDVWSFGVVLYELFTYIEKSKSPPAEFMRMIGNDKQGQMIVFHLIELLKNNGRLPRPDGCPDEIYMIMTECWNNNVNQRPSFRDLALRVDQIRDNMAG
Assay [3] concerns IFNα-induced pSTAT3 (JAK1/TYK2 signaling pathway). As to the kind of experiment: Mouse whole blood assay, inhibition of IFNα-induced pSTAT3. The format is cell-based. The note with it: C57BL/6J mouse blood, IFNα 20000 IU/mL. The procedure:
Cytokine IFNα can induce STAT3 phosphorylation (pSTAT3) through the JAK1/TYK2 signaling pathway. […] IFNα used was Recombinant mouse IFNα (Miltenyi #130-093-131), the pSTAT3 antibody used was Alexa Fluor 488 anti-STAT3 Phospho (Tyr705) Antibody (Biolegend #651106), and the CD3 antibody used was Brilliant Violet 421 anti-mouse CD3 Antibody (Biolegend #100228). The cytokine dilution buffer was PBS+0.1% BSA, which was filtered and stored at […]. The FACS buffer was PBS+0.2% BSA+1 mM EDTA. Specific steps are described below. • 1. C57BL/6J mouse blood was added to a 96-well plate, with 90 μL per well. • 2. Each well was added with 5 μL of the compound ([…]), uniformly mixed and incubated at 37° C. for 60 min in an incubator. • 3. Each well was added with 5 μL of 20×IFNα (with a working concentration of 20000 IU/mL) as the stimulation factor, uniformly mixed and incubated at 37° C. for 30 min. • 4. Blood was transferred to a 96-deep-well plate, and each well was added with 1 mL of Lyse fix buffer (1×), uniformly mixed and incubated at 37° C. for 10 min. • 5. The plate was centrifuged at 600 g for 5 min and the supernatant was discarded. 1 mL of PBS was added to each well and centrifuged at 600 g for 5 min and the supernatant was discarded, which were repeated twice. Each well was added with 100 μL of the anti-mCD3 antibody (diluted by a fold of 80 with the cytokine dilution buffer), uniformly mixed and incubated at 4° C. for 30 min. • 6. 1 mL of PBS was added to each well and centrifuged at 600 g for 5 min and the supernatant was discarded, which were repeated twice. Each well was added with 1000 μL of Perm III, uniformly mixed and incubated at 4° C. for 30 min. • 7. The plate was centrifuged at 600 g for 5 min and the supernatant was discarded. 1 mL of PBS was added to each well and centrifuged at 600 g for 5 min and the supernatant was discarded, which were repeated twice. • 8. Each well was added with 100 μL of the anti-pSTAT3 antibody (diluted by a fold of 50 with the FACS buffer), uniformly mixed and incubated at 25° C. for 40 min. • 9. 1 mL of the FACS buffer was added to each well and centrifuged at 600 g for 5 min and the supernatant was discarded. 200 μL of the FACS buffer was added to each well and resuspended. All samples were transferred to a 96-well tip-bottom plate and uploaded. • 10. Data were collected and analyzed.

In assay [4] the target is T1, JAK2. Conditions: selective JAK1 inhibitors, literature; cited from earlier work.
Target sequence in this assay (O60674 whole entry, species assumed): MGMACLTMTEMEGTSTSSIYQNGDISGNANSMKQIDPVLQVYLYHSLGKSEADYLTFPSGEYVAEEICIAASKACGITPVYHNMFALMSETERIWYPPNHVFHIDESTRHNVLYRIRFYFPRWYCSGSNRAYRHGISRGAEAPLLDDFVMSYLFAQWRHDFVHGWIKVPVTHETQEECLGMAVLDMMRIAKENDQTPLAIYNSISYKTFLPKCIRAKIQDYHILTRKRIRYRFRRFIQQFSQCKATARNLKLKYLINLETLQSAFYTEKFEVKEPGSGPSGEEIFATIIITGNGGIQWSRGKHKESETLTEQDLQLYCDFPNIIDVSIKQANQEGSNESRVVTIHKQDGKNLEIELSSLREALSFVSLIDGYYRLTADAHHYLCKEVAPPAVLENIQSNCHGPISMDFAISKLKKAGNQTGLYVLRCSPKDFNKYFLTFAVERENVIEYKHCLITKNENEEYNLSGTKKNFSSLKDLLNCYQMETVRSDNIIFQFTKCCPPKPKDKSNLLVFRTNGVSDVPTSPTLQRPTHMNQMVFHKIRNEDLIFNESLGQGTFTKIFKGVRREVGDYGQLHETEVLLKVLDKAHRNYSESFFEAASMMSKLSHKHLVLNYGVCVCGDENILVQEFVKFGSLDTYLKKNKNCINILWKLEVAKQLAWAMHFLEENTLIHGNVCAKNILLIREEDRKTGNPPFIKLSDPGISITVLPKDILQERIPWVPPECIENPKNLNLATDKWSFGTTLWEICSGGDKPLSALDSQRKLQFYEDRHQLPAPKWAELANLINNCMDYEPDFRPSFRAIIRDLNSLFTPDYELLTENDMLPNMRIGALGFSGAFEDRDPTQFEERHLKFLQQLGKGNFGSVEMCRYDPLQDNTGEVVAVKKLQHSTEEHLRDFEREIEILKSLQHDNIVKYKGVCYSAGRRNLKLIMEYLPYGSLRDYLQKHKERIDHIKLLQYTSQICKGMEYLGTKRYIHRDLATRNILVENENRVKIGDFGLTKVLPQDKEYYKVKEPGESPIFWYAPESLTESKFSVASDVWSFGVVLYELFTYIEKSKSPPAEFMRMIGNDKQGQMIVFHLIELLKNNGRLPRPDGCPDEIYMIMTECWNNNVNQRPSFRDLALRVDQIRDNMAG

Turning to `COc1nn(C)cc1Nc1nccc(-c2c[nH]c3c(NC(=O)[C@@H](C)N4CCN(C)CC4)cccc23)n1` [AZD4205, reference compound], the IC50 in assay [1] (Table 7) stood at 56 nM; in assay [1] (Table 8) it was 56 nM; in assay [2] (Table 7), 4020 nM; in assay [2] (Table 8), 4020 nM; in assay [3], 173 nM. For the same compound, the “JAK2/JAK1 Multiple selectivity” value in assay [1] amounted to 72.
With `COc1nn(C)cc1Nc1ncc(C)c(-c2c[nH]c3c(NC(=O)[C@H]4C[C@H](F)CN4[C@@H]4CCN(C)C4)cccc23)n1` [Example 30, (2R,3′R,4S)-4-fluoro-N-(3-(2-((3-methoxy-1-methyl-1H-pyrazol-4-yl)amino)-5-methylpyrimidin-4-yl)-1H-indol-7-yl)-1′-methyl-[1,3′-bipyrrolidine]-2-carboxamide], the half-maximal inhibitory concentration (IC50) in assay [1] (Table 7) was 33 nM; in assay [1] (Table 8) it was 33 nM; in assay [2] (Table 7), 5160 nM; in assay [2] (Table 8), 5160 nM; in assay [3], 127 nM. Moreover, the “JAK2/JAK1 Multiple selectivity” value in assay [1] came to 156.
In the case of `COc1nn(C)cc1Nc1ncc(C)c(-c2c[nH]c3c(NC(=O)[C@H]4CC(F)(F)CN4[C@@H]4CCN(C)C4)cccc23)n1` [Example 32, (2R,3′R)-4,4-difluoro-N-(3-(2-((3-methoxy-1-methyl-1H-pyrazol-4-yl)amino)-5-methylpyrimidin-4-yl)-1H-indol-7-yl)-1′-methyl-[1,3′-bipyrrolidine]-2-carboxamide], the half-inhibitory concentration (IC50) in assay [1] (Table 7) was found to be 26 nM; in assay [1] (Table 8), 26 nM; in assay [2] (Table 7), 3880 nM; in assay [2] (Table 8) it was 3880 nM; in assay [3], 121 nM. The “JAK2/JAK1 Multiple selectivity” value in assay [1] is 149.
For `COc1nn(C)cc1Nc1ncc(C)c(-c2c[nH]c3c(NC(=O)[C@H]4CC(F)(F)CN4[C@@H]4CCOC4)cccc23)n1` [Example 34, (R)-4,4-difluoro-N-(3-(2-((3-methoxy-1-methyl-1H-pyrazol-4-yl)amino)-5-methylpyrimidin-4-yl)-1H-indol-7-yl)-1-((R)-tetrahydrofuran-3-yl)pyrrolidine-2-carboxamide], the values for the IC50 in assay [1] (Table 7) and in assay [2] (Table 7) were 161 nM and 2510 nM, respectively.
`COc1nn(C)cc1Nc1ncc(C)c(-c2c[nH]c3c(NC(=O)[C@H]4CC(F)(F)CN4[C@H]4CCOC4)cccc23)n1` [Example 35, (R)-4,4-difluoro-N-(3-(2-((3-methoxy-1-methyl-1H-pyrazol-4-yl)amino)-5-methylpyrimidin-4-yl)-1H-indol-7-yl)-1-((S)-tetrahydrofuran-3-yl)pyrrolidine-2-carboxamide]: the values for the concentration for half-maximal inhibition (IC50) in assay [1] (Table 7) and in assay [2] (Table 7) were 115 nM and 1890 nM, respectively.
As for `COc1nn(C)cc1Nc1nccc(-c2c[nH]c3c(NC(=O)[C@H]4CC(F)(F)CN4[C@@H]4CCN(C)C4)cccc23)n1` [Example 36, (2R,3′R)-4,4-difluoro-N-(3-(2-((3-methoxy-1-methyl-1H-pyrazol-4-yl)amino)pyrimidin-4-yl)-1H-indol-7-yl)-1′-methyl-[1,3′-bipyrrolidine]-2-carboxamide], the IC50 in assay [1] (Table 7) amounted to 91 nM; in assay [2] (Table 7), 12000 nM.
On the same counts, the results for `COc1nn(C)cc1Nc1nccc(-c2c[nH]c3c(NC(=O)[C@H]4CC(F)(F)CN4[C@H]4CCN(C)C4)cccc23)n1` [Example 37, (2R,3′S)-4,4-difluoro-N-(3-(2-((3-methoxy-1-methyl-1H-pyrazol-4-yl)amino)pyrimidin-4-yl)-1H-indol-7-yl)-1′-methyl-[1,3′-bipyrrolidine]-2-carboxamide] are 216 nM and 10800 nM.
In the case of `COc1nn(C)cc1Nc1ncc(F)c(-c2c[nH]c3c(NC(=O)[C@H]4C[C@H](F)CN4[C@@H]4CCN(C)C4)cccc23)n1` [Example 38, (2R,3′R,4S)-4-fluoro-N-(3-(5-fluoro-2-((3-methoxy-1-methyl-1H-pyrazol-4-yl)amino)pyrimidin-4-yl)-1H-indol-7-yl)-1′-methyl-[1,3′-bipyrrolidine]-2-carboxamide], the IC50 in assay [1] (Table 7) came out at 34 nM; in assay [2] (Table 7), 5280 nM.
The like results for `COc1nn(C)cc1Nc1ncc(F)c(-c2c[nH]c3c(NC(=O)[C@H]4C[C@H](F)CN4[C@H]4CCN(C)C4)cccc23)n1` [Example 39, (2R,3′S,4S)-4-fluoro-N-(3-(5-fluoro-2-((3-methoxy-1-methyl-1H-pyrazol-4-yl)amino)pyrimidin-4-yl)-1H-indol-7-yl)-1′-methyl-[1,3′-bipyrrolidine]-2-carboxamide] were, in that order, 50 nM and 4850 nM.
As for `COc1nn(C)cc1Nc1nccc(-c2c[nH]c3c(NC(=O)[C@H]4C[C@H](F)CN4C4CCN(C)CC4)cccc23)n1` [Example 40, (2R,4S)-4-fluoro-N-(3-(2-((3-methoxy-1-methyl-1H-pyrazol-4-yl)amino)pyrimidin-4-yl)-1H-indol-7-yl)-1-(1-methylpiperidin-4-yl)pyrrolidine-2-carboxamide], the IC50 in assay [1] (Table 7) was found to be 259 nM; in assay [2] (Table 7), 24300 nM.
In the case of `CCCS(=O)(=O)N[C@H]1C[C@@H](N(C)c2ncnc3[nH]ccc23)C1` [abrocitinib, reference compound], in assay [3], the half-inhibitory concentration (IC50) was 204 nM.
For `O=C(Nc1nc2cccc(-c3ccc(CN4CCS(=O)(=O)CC4)cc3)n2n1)C1CC1` [filgotinib], in assay [4], the “selectivity for JAK2 in kinase assays” value is on record as “less than three”.
In the case of `CC[C@@H]1CN(C(=O)NCC(F)(F)F)C[C@@H]1c1cnc2cnc3[nH]ccc3n12` [upadacitinib], in assay [4], the “selectivity for JAK2 in kinase assays” value is reported as “less than three”.
